One assay concerns LY10 cells. The experiment in a line: Cell Titer Glo viability, lymphoma cell line LY10. The class given is cell-based. The following applies: for viability at 50 µM: LY10, 50 uM. Here is the method: (§1) Cytotoxicity was performed on cultured cells using Cell Titer Glo, as previously described. Experiments were carried out in 96-well plates, with each treatment in triplicate. Samples were taken at typically 24 hours, 48 hours, and/or 72 hours after treatment, as indicated. Cytotoxicity was expressed by the decreasing percentage of live cells in each treatment relative to the untreated control from the same experiment, as a function of time. IC50 (half the maximal inhibitory concentration) for each cell line was calculated using the CalcuSyn Version 2.0 software (Biosoft).
The lymphoma cell line LY10 was treated with CUX-03166 (′166 compound) for 24 hours, 48 hours and 72 hours. Cells were collected from the treatment group and the vehicle treated negative control. Viable cells were quantitated by the Cell-Titer Glo assay from Promega. Viable cells in the treated cells were expressed as a percentage of the negative control. […] At a concentration of 50 uM, viability of cells drop to 0% just at 24 hours of treatment. Cells were also treated with Cal-101 and TGR-1202 and viability was determined at 24 hr. For lower concentrations of 5 μm and 15 μM, viability dropped to ˜80% for both treatments. However, as concentrations increased up to 50 μM, viability remained at ˜80% for Cal-101 and modestly dropped to ˜65% for TGR-1202, as shown in FIG. 1.
A general note: ATP-based viability assays read luminescence as a measure of living cells.

For a further assay, the system named is LY7 cells. The experiment in a line: Cell Titer Glo viability, lymphoma cell line LY7 (OCI-LY7, GCB-DLBCL). The class given is cell-based. The note with it: for viability at 15 µM: LY7, 15 uM; for viability at 25 µM: LY7, 25 uM. The protocol:
as §1
The lymphoma cell line LY7 was treated with CUX-03166 for 24 hr (diamond), 48 hours (square) and 72 hours (triangle). Viability was determined similar to that for Example 2. […] At 25 uM concentrations, viability dropped to 0% at 24 hours.
(§2) CUX-0404A reduces viability of OCI-LY7 cells (germinal center diffuse large B cell lymphoma, GCB-DLBCL), see FIG. 4. The lymphoma cell line LY7 was treated with CUX-0404A for 24 hours (dark circle), 48 hours (light circle) or CUX0404B for 24 hours (dark square) or 48 hours (light square). Viability was determined similar to that for FIG. 1. At 15 uM concentrations, viability of cells dropped to 60% at 24 hours, ˜42% at 48 hours, At 25 uM concentrations, viability dropped to 0% at 24 hours. FIG. 5. CUX-0404A reduces viability of Z-138 (mantle cel lymphoma, MCL) cells more potently than TG-1202. […] Viability was determined similar to that for FIG. 1. At 25 uM concentrations, viability of cells dropped to 20% for the CUX-0404A treatment as compared to 60% for TGR-1202

For assay [1], the system named is Z-138 (mantle cel lymphoma, MCL) cells. The experiment in a line: Cell Titer Glo viability, Z-138 mantle cell lymphoma cells. Format: cell-based. The following applies: Homo sapiens; Z-138, 25 uM, 24 hours. The protocol:
as §1, §2

In assay [2] the test system is c-Myc. The experiment in a line: Western blot of c-Myc level in LY7 (GCB-DLBCL) cells. The following applies: for reduction in c-Myc (Western blot): LY-7, 25 uM, 6 hours. The class given is cell-based. Here is the method: (§3) Western blot was performed on whole protein extract from cultured cells under specified treatment conditions, most often for 24 hours. Western blotting was performed according to standard protocols, using the chemiluminescence detection system from Thermo Scientific. The primary antibodies were purchased from Cell Signaling Technology unless specified otherwise, and were against these proteins: 4EBP1, phos-4EBP1, S6K, phos-S6K, Bcl2, Bcl-xL, PARP, c-myc, B-catenin, P-4EBP1 (S65), P-4EBP1 (T70). Signals of beta-actin and GAPDH were used as loading control. Goat anti-rabbit or anti-mouse secondary antibodies were purchased from Santa Cruz Biotechnology.
(§4) The lymphoma cell lines LY10 and LY7 were treated with PF4800567 (PF), Cal-101 (Cal), TGR-1202 (TG) and CUX-03166 as single agents for 6 hours all at 25 uM concentrations. Protein extracts were processed for Western blot using antibodies against c-Myc, B-Catenin, phosphorylated 4EBP1, total 4EBP1, and beta actin.
(§5) FIG. 6. […] Protein extracts were processed for Western blot using antibodies against c-Myc, B-Catenin, phosphorylated 4EBP1, total 4EBP1, P-p70S6K, P70S6K, PARP and beta actin.
Background: A western blot detects proteins with antibodies after separation by electrophoresis.

In assay [3] the test system is phosphorylation of 4EBP1. The experiment in a line: Western blot of phosphorylated 4EBP1 in GCB-DLBCL lymphoma cell line. Format: cell-based. The following applies: 12 hours, 15 and 20 uM. Here is the method:
as §3, §5

Another assay deals with T1, CK1epsilon (Homo sapiens, UniProt P49674).
T1 construct: purchased Reaction Biology
T1 sequence (P49674 whole entry): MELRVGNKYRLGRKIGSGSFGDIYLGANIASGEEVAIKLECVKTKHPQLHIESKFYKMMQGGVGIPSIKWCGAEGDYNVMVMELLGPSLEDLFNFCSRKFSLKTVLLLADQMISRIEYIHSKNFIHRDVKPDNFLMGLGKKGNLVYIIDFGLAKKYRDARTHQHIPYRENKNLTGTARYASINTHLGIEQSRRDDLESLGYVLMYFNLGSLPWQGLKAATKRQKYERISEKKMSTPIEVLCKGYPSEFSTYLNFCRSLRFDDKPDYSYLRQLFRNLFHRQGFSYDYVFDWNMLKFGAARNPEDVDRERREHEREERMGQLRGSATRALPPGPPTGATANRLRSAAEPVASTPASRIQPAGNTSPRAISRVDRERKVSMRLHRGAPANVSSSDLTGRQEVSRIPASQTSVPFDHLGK
The experiment in a line: CK1ε kinase activity assay (radioisotope filtration binding assay). The class given is biochemical. The following applies: 10 μM ATP, 3-fold serial dilution from 100 μM. Here is the method:
The CK-1 assay was conducted according to the techniques disclosed in Anastassiadis et al, Nat Biotechnol; 29(11): 1039-1045. Briefly, specific kinase/substrate pairs along with required cofactors were prepared in reaction buffer; 20 mM Hepes pH 7.5, 10 mM MgCl2, 1 mM EGTA, 0.02% Brij35, 0.02 mg/ml BSA, 0.1 mM Na3VO4, 2 mM DTT, 1% DMSO (for specific details of individual kinase reaction components see Supplementary Table 2, Anastassiadis et al. 2011). Compounds were delivered into the reaction, followed ˜20 minutes later by addition of a mixture of ATP (Sigma, St. Louis Mo.) and 33P ATP (Perkin Elmer, Waltham Mass.) to a final concentration of 10 μM. Reactions were carried out at room temperature for 120 min, followed by spotting of the reactions onto P81 ion exchange filter paper (Whatman Inc., Piscataway, N.J.). Unbound phosphate was removed by extensive washing of filters in 0.75% phosphoric acid. […] IC50 values and curve fits were obtained using Prism (GraphPad Software). • Substrate: Peptide substrate, [KRRRAL[pS]VASLPGL], 20 μM ATP 10 μM • Reaction: Substrate+[γ-33P]-ATP 33P-Substrate+ADP • Assay: radioisotope filtration binding assay (Reaction Biology). […]

For assay [4], the system named is c-Myc. The experiment in a line: Western blot of c-Myc level in LY10 cells. The note with it: LY-10, 25 uM, 6 hours, vs vehicle. Format: cell-based. The protocol:
as §3, §4

The test system of assay [5] is phosphorylation of 4EBP1. The experiment in a line: Western blot of phosphorylated 4EBP1 in LY10 cells. The class given is cell-based. The note with it: LY-10, 25 uM, 6 hours, vs vehicle. The protocol: as §3, §4
Where [6] appears, read: 24 hours, read-out: viability (viable cells as percentage of negative control).

Read-outs that look alike come from different tables or passages of the source.

The compound `CC(C)Oc1ccc(-c2nn([C@@H](C)c3nc4ncc(Br)c(N(C)C)c4c(=O)n3-c3ccccc3)c3ncnc(N)c23)cc1F` [CUX-0404A] displayed a viability at 20 µM with LY10 cells (LY10 (as printed in summary), 20 μM, 48 hours) of 0%. Moreover, the viability at 25 µM with LY10 cells (LY10 (as printed in summary), 25 μM, 24 hours, read-out: viability) came out at 0%; in the assay on LY7 cells (24 hours) it was 0%; in assay [1], 20%. In addition, the results for the viability at 15 µM with LY7 cells (24 hours) and in the assay with LY7 cells (48 hours) were 60% and roughly 42%, respectively. Besides, the “c-myc level (Western blot)” value in the assay with c-Myc [2] (GCB-DLBCL lymphoma cell line, 12 hours, 20 uM) is on record as “undetectable”. Also, in the assay on c-Myc [2] (GCB-DLBCL lymphoma cell line, 12 hours, 15 and 20 uM, vs vehicle), the “reduction of c-Myc level (Western blot)” value is listed as “significantly greater reduction”. Also, in the assay with phosphorylation of 4EBP1 [3], the “inhibition of phosphorylation of 4EBP1 (Western blot)” value was “Potent Inhibition”. The same compound returned an IC50 at CK1epsilon of 3.21 µM.

Turning to `CC[C@@H](c1nc2cccc(F)c2c(=O)n1-c1ccccc1)n1nc(-c2ccc(OC(C)C)c(F)c2)c2c(N)ncnc21` [CUX-03166], the viability at 25 µM worked out at 0% with LY10 cells (LY10, 25 uM, 48 hours, read-out: viability (viable cells as percentage of negative control)) and 0% in the assay with LY7 cells (24 hours). The viability at 50 µM in the assay on LY10 cells (setting [6]) worked out at 0%. Moreover, the viability at 15 µM in the assay on LY7 cells (24 hours) is 40%; in the assay on LY7 cells (48 hours), 10%; in the assay on LY7 cells (72 hours), roughly 0%. For the same compound, the “inhibition of the c-Myc level (Western blot)” value in the assay with c-Myc [4] is recorded as “significantly greater reduction”. Besides, in the assay with c-Myc [2] (LY7 cells, Western blot), the “increase in potency in inhibiting c-Myc compared to TGR-1202” value is “near-fiftyfold increase in potency”. Moreover, the “reduction in c-Myc (Western blot)” value with c-Myc [2] is given as “undetectable level”.

As to `CC[C@H](Nc1ncnc2[nH]cnc12)c1nc2cccc(F)c2c(=O)n1-c1ccccc1` [Cal-101, reference compound], in the assay with LY10 cells (setting [6]), the viability at 50 µM is roughly 80%.

For `Nc1ncnc2c1c(COc1cccc(Cl)c1)nn2C1CCOCC1` [PF4800, reference compound], the “inhibition of the c-Myc level (Western blot)” value with c-Myc [4] was “moderate inhibition”. The “reduction in c-Myc (Western blot)” value in the assay on c-Myc [2] was “modest reduction”. In the assay on phosphorylation of 4EBP1 [5], the “inhibition of phosphorylation of 4EBP1 (Western blot)” value is recorded as “moderate inhibition”.

As a reminder, the viability is a read-out of living cells in per cent, often relative to untreated cells. By IC50 is commonly meant the point on the concentration scale where inhibition reaches its midpoint. Low values mean higher potency, high ones lower potency.

These data come from patent publication US10882863B2, “Compounds for reducing c-Myc in c-Myc overexpressing cancers background” (The Trustees of Columbia University in the City of New York, priority 2016, dated 2021).
